Reference: article PMC2964429 (Biochemistry, 2010)

Experiments:
[1] = molecular target: PgAgD (agmatine deiminase from P. gingivalis) (Porphyromonas gingivalis, UniProt Q7MXM8); assay: IC50 determination, agmatine deiminase discontinuous ureido; type: biochemical
[2] = molecular target: HpAgD (agmatine deiminase from Helicobacter pylori); settings: read-out: IC50 HpAgD; previously reported; cited from earlier work
[3] = molecular target: SmAgD (agmatine deiminase from S. mutans) (Streptococcus mutans serotype c, UniProt Q8DW17); assay: IC50 determination, agmatine deiminase discontinuous ureido; type: biochemical
Sequence of SmAgD (agmatine deiminase from S. mutans) (Q8DW17 whole entry): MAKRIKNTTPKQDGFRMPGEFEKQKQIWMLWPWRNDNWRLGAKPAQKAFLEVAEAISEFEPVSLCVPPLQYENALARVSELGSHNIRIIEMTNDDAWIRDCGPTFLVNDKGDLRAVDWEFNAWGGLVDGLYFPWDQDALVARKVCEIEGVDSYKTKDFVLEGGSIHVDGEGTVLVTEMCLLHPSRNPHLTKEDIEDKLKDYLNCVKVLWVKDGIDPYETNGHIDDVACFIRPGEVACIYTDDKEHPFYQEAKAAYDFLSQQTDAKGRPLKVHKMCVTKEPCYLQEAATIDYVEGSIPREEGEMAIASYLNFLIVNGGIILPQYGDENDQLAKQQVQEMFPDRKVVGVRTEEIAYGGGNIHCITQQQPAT

Cys324 = assay: chemical modification; settings: 37 °C, 50 mM HEPES, free enzyme (kinact/KI)

N=C(CCl)NCCCCN [ABCA, N-(4-aminobutyl)-2-chloro-ethanimidamide]
IC50 [1]: 15 ± 3 µM | IC50 [2]: 0.87 ± 0.03 µM

N=C(CF)NCCCCN [ABFA, N-(4-aminobutyl)-2-fluoro-ethanimidamide]
IC50 [3]: 0.27 ± 0.1 µM | IC50 [1]: 91 ± 25 µM | IC50 [2]: 6.8 ± 0.26 µM

Agmatine deiminase (HpAgD) (Helicobacter pylori)
pKa (Cys324; 2-chloroacetamidine 0-60 mM): 9.8 ± 0.1 | pKa (Cys324; iodoacetamide 0-20 mM): 9.2 ± 0.3
